Laboratory results: patent US20090253709A1 (NATIONAL DEFENSE MEDICAL CENTER, priority 2008, published 2009)

What was measured:
Format in all cases: cell-based
SN12C = test: In vitro cytotoxicity, Development Therapeutics Program; conditions: renal cancer, 1.0×10^−5 M
Summary of the method: (§1)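 Test compound added to cultured cancer cells at 1.0×10^−5 M, then inhibition measured in vitro under the US Development Therapeutics Program screen.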

NCI/ADR-RES = test: as above; conditions: breast cancer, 1.0×10^−5 M
Summary of the method: as §1

K-562 = test: as above; conditions: K-562, leukemia; 1.0×10^−5 M
Summary of the method: as §1

RPMI-8226 = test: as above; conditions: RPMI-8226, leukemia; 1.0×10^−5 M
Summary of the method: as §1

SF-295 = test: as above; conditions: SF-295, CNS cancer; 1.0×10^−5 M
Summary of the method: as §1

HL-60(TB) = test: as above; conditions: leukemia, 1.0×10^−5 M
OVCAR-4 = test: as above; conditions: OVCAR-4, ovarian cancer; 1.0×10^−5 M
Summary of the method: as §1

SF-268 = test: as above; conditions: SF-268, CNS cancer; 1.0×10^−5 M
Summary of the method: as §1

OVCAR-5 = test: as above; conditions: OVCAR-5, ovarian cancer; 1.0×10^−5 M
Summary of the method: as §1

HCC-2998 = test: as above; conditions: HCC-2998, colon cancer; 1.0×10^−5 M
Summary of the method: as §1

MOLT-4 = test: as above; conditions: MOLT-4, leukemia; 1.0×10^−5 M
Summary of the method: as §1

SF-539 = test: as above; conditions: SF-539, CNS cancer; 1.0×10^−5 M
Summary of the method: as §1

U251 = test: as above; conditions: U251, CNS cancer; 1.0×10^−5 M
Summary of the method: as §1

MDA-MB-435 = test: as above; conditions: MDA-MB-435, breast cancer; 1.0×10^−5 M
Summary of the method: as §1

TK-10 = test: as above; conditions: TK-10, renal cancer; 1.0×10^−5 M
Summary of the method: as §1

UACC-62 = test: as above; conditions: UACC-62, melanoma; 1.0×10^−5 M
Summary of the method: as §1

KM12 = test: as above; conditions: KM12, colon cancer; 1.0×10^−5 M
Summary of the method: as §1

NCl-H322M = test: as above; conditions: non-small cell lung cancer, 1.0×10^−5 M
Summary of the method: as §1

PC-3 = test: as above; conditions: PC-3, prostate cancer; 1.0×10^−5 M
Summary of the method: as §1

T-47D = test: as above; conditions: breast cancer, 1.0×10^−5 M
Summary of the method: as §1

NCl-H460 = test: as above; conditions: NCl-H460, non-small cell lung cancer; 1.0×10^−5 M
Summary of the method: as §1

SK-MEL-28 = test: as above; conditions: SK-MEL-28, melanoma; 1.0×10^−5 M
Summary of the method: as §1

HOP-92 = test: as above; conditions: HOP-92, non-small cell lung cancer; 1.0×10^−5 M
Summary of the method: as §1

SNB-75 = test: as above; conditions: SNB-75, CNS cancer; 1.0×10^−5 M
Summary of the method: as §1

MALME-3M = test: as above; conditions: melanoma, 1.0×10^−5 M
Summary of the method: as §1

CCRF-CEM = test: as above; conditions: leukemia, 1.0×10^−5 M
Summary of the method: as §1

SK-MEL-2 = test: as above; conditions: SK-MEL-2, melanoma; 1.0×10^−5 M
Summary of the method: as §1

SK-MEL-5 = test: as above; conditions: SK-MEL-5, melanoma; 1.0×10^−5 M
Summary of the method: as §1

786-0 = test: as above; conditions: 786-0, renal cancer; 1.0×10^−5 M
Summary of the method: as §1

SW-620 = test: as above; conditions: SW-620, colon cancer; 1.0×10^−5 M
Summary of the method: as §1

OVCAR-3 = test: as above; conditions: OVCAR-3, ovarian cancer; 1.0×10^−5 M
Summary of the method: as §1

SNB-19 = test: as above; conditions: SNB-19, CNS cancer; 1.0×10^−5 M
Summary of the method: as §1

BT-549 = test: as above; conditions: BT-549, breast cancer; 1.0×10^−5 M
Summary of the method: as §1

OVCAR-8 = test: as above; conditions: OVCAR-8, ovarian cancer; 1.0×10^−5 M
Summary of the method: as §1

HCT-116 = test: as above; conditions: HCT-116, colon cancer; 1.0×10^−5 M
Summary of the method: as §1

UO-31 = test: as above; conditions: UO-31, renal cancer; 1.0×10^−5 M
Summary of the method: as §1

[1] = system: different cancer cell lines; test: In vitro cytotoxicity, Development Therapeutics Program, summary over all cell lines; conditions: 1.0×10^−5 M
Source text: From the in vitro experiments of the Development Therapeutics Program of the Cancer Research Institute, the United States, it was known that the synthetic heterocyclic anthraquinone derivatives of the present invention have different inhibition levels to the different cancer cell lines under the concentration of 1.0×10^−5 M. Please refer to Table 2, which is the result of in vitro cytotoxicity of 2,7-disubstituted anthraquinone derivatives of the present invention.

O=C1c2ccc(NC(=O)C3CC3)cc2C(=O)c2cc(NC(=O)C3CC3)ccc21 [Compound 32, 2,7-Bis(cyclopropanecarbonamido)anthraquinone]
Cellular growth rate (%) (SN12C): 82.93% | Cellular growth rate (%) (NCI/ADR-RES): 90.83% | Cellular growth rate (%) (K-562): 91.60% | Cellular growth rate (%) (RPMI-8226): 88.38% | Cellular growth rate (%) (SF-295): 86.60% | Cellular growth rate (%) (HL-60(TB)): 62.45% | Cellular growth rate (%) (OVCAR-4): 97.54% | Cellular growth rate (%) (SF-268): 95.09% | Cellular growth rate (%) (OVCAR-5): 112.01% | Cellular growth rate (%) (HCC-2998): 132.37% | Cellular growth rate (%) (MOLT-4): 94.29% | Cellular growth rate (%) (SF-539): 93.24% | Cellular growth rate (%) (U251): 72.62% | Cellular growth rate (%) (MDA-MB-435): 97.35% | Cellular growth rate (%) (TK-10): 136.20% | Cellular growth rate (%) (UACC-62): 81.00% | Cellular growth rate (%) (KM12): 92.67% | Cellular growth rate (%) (NCl-H322M): 105.77% | Cellular growth rate (%) (PC-3): 106.89% | Cellular growth rate (%) (T-47D): 79.75% | Cellular growth rate (%) (NCl-H460): 89.03% | Cellular growth rate (%) (SK-MEL-28): 108.51% | Cellular growth rate (%) (HOP-92): 86.18% | Cellular growth rate (%) (SNB-75): 89.23% | Cellular growth rate (%) (MALME-3M): 91.76% | Cellular growth rate (%) (CCRF-CEM): 90.67% | Cellular growth rate (%) (SK-MEL-2): 16.85% | Cellular growth rate (%) (SK-MEL-5): 75.67% | Cellular growth rate (%) (786-0): 94.92% | Cellular growth rate (%) (SW-620): 104.75% | Cellular growth rate (%) (OVCAR-3): 103.35% | Cellular growth rate (%) (SNB-19): 98.79% | Cellular growth rate (%) (BT-549): 92.51% | Cellular growth rate (%) (OVCAR-8): 94.34% | Cellular growth rate (%) (HCT-116): 87.14% | Cellular growth rate (%) (UO-31): 95.55% | Cellular growth rate (%), Mean [1]: 91.54%
